Reference: ChEMBL document CHEMBL3885861, “Open TG-GATES”

Species on record: Rattus norvegicus
Assay: Open TG-GATES - Regimen: Daily Repeat
Assay type: toxicity, organism-based, Sprague-Dawley
Set-up: regimen Daily Repeat, gender Male, age 6 weeks
Details: in vivo, po, 300 mg/kg, route gavage, dose level Middle; for APTT / Bas / Eos / Fbg / Hb / Ht / Lym / MCH / MCHC / MCV / Mono / Neu / PT / Plat / RBC / Ret / WBC: tissue Blood; for KIDNEY_L / KIDNEY_R / KIDNEY_TOTAL: tissue Kidney; for LIVER: tissue Liver; for A/G / ALP / ALT / AST / BUN / CRE / Ca / Cl / DBIL / GLC / IP / K / LDH / Na / PL / RALB / TBIL / TC / TG / TP / gamma-GTP: tissue Plasma

CC(S)C(=O)NCC(=O)O (configuration not stated) [TIOPRONIN]
TERMINAL_BW (72 h, time 3 day): 224.5 g | APTT (72 h, time 3 day): 22.4 s | Bas (72 h, time 3 day): 0% | Eos (72 h, time 3 day): 0.8% | Fbg (72 h, time 3 day): 299 mg/dL | Hb (72 h, time 3 day): 13.5 g/dL | Ht (72 h, time 3 day): 40% | Lym (72 h, time 3 day): 78.4% | MCH (72 h, time 3 day): 21.1 pg | MCHC (72 h, time 3 day): 33.6% | MCV (72 h, time 3 day): 62.7 fL | Mono (72 h, time 3 day): 2.4% | Neu (72 h, time 3 day): 17.2% | PT (72 h, time 3 day): 15.2 s | Plat (72 h, time 3 day): 132 x10_4/uL | RBC (72 h, time 3 day): 639.8 x10_4/ul | Ret (72 h, time 3 day): 7.5% | WBC (72 h, time 3 day): 96 x10_2/uL | KIDNEY_L (72 h, time 3 day): 1 g | KIDNEY_R (72 h, time 3 day): 1 g | KIDNEY_TOTAL (72 h, time 3 day): 2 g | LIVER (72 h, time 3 day): 10.7 g | A/G (72 h, time 3 day): 1.2 | ALP (72 h, time 3 day): 1564.4 IU/L | ALT (72 h, time 3 day): 42 IU/L | AST (72 h, time 3 day): 75.2 IU/L | BUN (72 h, time 3 day): 16 mg/dL | CRE (72 h, time 3 day): 0.2 mg/dL | Ca (72 h, time 3 day): 10.6 mg/dL | Cl (72 h, time 3 day): 105.8 meq/L | DBIL (72 h, time 3 day): 0 mg/dL | GLC (72 h, time 3 day): 187.4 mg/dL | IP (72 h, time 3 day): 7.3 mg/dL | K (72 h, time 3 day): 4.4 meq/L | LDH (72 h, time 3 day): 205.6 IU/L | Na (72 h, time 3 day): 140.4 meq/L | PL (72 h, time 3 day): 131.4 mg/dL | RALB (72 h, time 3 day): 3 g/dL | TBIL (72 h, time 3 day): 0.008 mg/dL | TC (72 h, time 3 day): 73.4 mg/dL | TG (72 h, time 3 day): 71.2 mg/dL | TP (72 h, time 3 day): 5.5 g/dL | gamma-GTP (72 h, time 3 day): 1.4 IU/L | TERMINAL_BW ([…], time 7 day): 258 g | TERMINAL_BW ([…], time 14 day): 313.9 g | TERMINAL_BW ([…], time 28 day): 381.6 g | APTT ([…], time 7 day): 22.2 s | Bas ([…], time 7 day): 0% | Eos ([…], time 7 day): 1.2% | Fbg ([…], time 7 day): 330.4 mg/dL | Hb ([…], time 7 day): 14 g/dL | Ht ([…], time 7 day): 40.4% | Lym ([…], time 7 day): 77.6% | MCH ([…], time 7 day): 21.7 pg | MCHC ([…], time 7 day): 34.9% | MCV ([…], time 7 day): 62.1 fL | Mono ([…], time 7 day): 2.4% | Neu ([…], time 7 day): 18% | PT ([…], time 7 day): 15.3 s | Plat ([…], time 7 day): 121.4 x10_4/uL | RBC ([…], time 7 day): 649.6 x10_4/ul | Ret ([…], time 7 day): 6.4% | WBC ([…], time 7 day): 101.8 x10_2/uL | APTT ([…], time 14 day): 23.7 s | Bas ([…], time 14 day): 0% | Eos ([…], time 14 day): 1% | Fbg ([…], time 14 day): 287.6 mg/dL | Hb ([…], time 14 day): 14 g/dL | Ht ([…], time 14 day): 41.2% | Lym ([…], time 14 day): 83% | MCH ([…], time 14 day): 20.3 pg | MCHC ([…], time 14 day): 33.9% | MCV ([…], time 14 day): 59.7 fL | Mono ([…], time 14 day): 2.2% | Neu ([…], time 14 day): 13.2% | PT ([…], time 14 day): 15.5 s | Plat ([…], time 14 day): 109.8 x10_4/uL | RBC ([…], time 14 day): 689.8 x10_4/ul | Ret ([…], time 14 day): 5% | WBC ([…], time 14 day): 142 x10_2/uL | APTT ([…], time 28 day): 24.6 s | Bas ([…], time 28 day): 0% | Eos ([…], time 28 day): 1% | Fbg ([…], time 28 day): 323.4 mg/dL | Hb ([…], time 28 day): 15.4 g/dL | Ht ([…], time 28 day): 43.3% | Lym ([…], time 28 day): 82.6% | MCH ([…], time 28 day): 20.1 pg | MCHC ([…], time 28 day): 35.5% | MCV ([…], time 28 day): 56.6 fL | Mono ([…], time 28 day): 2% | Neu ([…], time 28 day): 12.6% | PT ([…], time 28 day): 16.1 s | Plat ([…], time 28 day): 95.9 x10_4/uL | RBC ([…], time 28 day): 764.2 x10_4/ul | Ret ([…], time 28 day): 2.6% | WBC ([…], time 28 day): 146.8 x10_2/uL | KIDNEY_L ([…], time 7 day): 1.1 g | KIDNEY_R ([…], time 7 day): 1.1 g | KIDNEY_TOTAL ([…], time 7 day): 2.2 g | KIDNEY_L ([…], time 14 day): 1.2 g | KIDNEY_R ([…], time 14 day): 1.2 g | KIDNEY_TOTAL ([…], time 14 day): 2.5 g | KIDNEY_L ([…], time 28 day): 1.4 g | KIDNEY_R ([…], time 28 day): 1.4 g | KIDNEY_TOTAL ([…], time 28 day): 2.9 g | LIVER ([…], time 7 day): 12 g | LIVER ([…], time 14 day): 13.9 g | LIVER ([…], time 28 day): 16.5 g | A/G ([…], time 7 day): 1.1 | ALP ([…], time 7 day): 1316.6 IU/L | ALT ([…], time 7 day): 36 IU/L | AST ([…], time 7 day): 63.4 IU/L | BUN ([…], time 7 day): 15.8 mg/dL | CRE ([…], time 7 day): 0.1 mg/dL | Ca ([…], time 7 day): 10.6 mg/dL | Cl ([…], time 7 day): 106.6 meq/L | DBIL ([…], time 7 day): 0 mg/dL | GLC ([…], time 7 day): 186.4 mg/dL | IP ([…], time 7 day): 7.3 mg/dL | K ([…], time 7 day): 4.3 meq/L | LDH ([…], time 7 day): 150.2 IU/L | Na ([…], time 7 day): 140.6 meq/L | PL ([…], time 7 day): 144.6 mg/dL | RALB ([…], time 7 day): 2.9 g/dL | TBIL ([…], time 7 day): 0 mg/dL | TC ([…], time 7 day): 70.6 mg/dL | TG ([…], time 7 day): 146.2 mg/dL | TP ([…], time 7 day): 5.5 g/dL | gamma-GTP ([…], time 7 day): 1.8 IU/L | A/G ([…], time 14 day): 1.3 | ALP ([…], time 14 day): 1441.2 IU/L | ALT ([…], time 14 day): 43.8 IU/L | AST ([…], time 14 day): 65.8 IU/L | BUN ([…], time 14 day): 20.4 mg/dL | CRE ([…], time 14 day): 0.2 mg/dL | Ca ([…], time 14 day): 10.6 mg/dL | Cl ([…], time 14 day): 106.8 meq/L | DBIL ([…], time 14 day): 0 mg/dL | GLC ([…], time 14 day): 194.6 mg/dL | IP ([…], time 14 day): 6.5 mg/dL | K ([…], time 14 day): 4.4 meq/L | LDH ([…], time 14 day): 143.4 IU/L | Na ([…], time 14 day): 140.8 meq/L | PL ([…], time 14 day): 151.8 mg/dL | RALB ([…], time 14 day): 3.1 g/dL | TBIL ([…], time 14 day): 0.004 mg/dL | TC ([…], time 14 day): 70.8 mg/dL | TG ([…], time 14 day): 155 mg/dL | TP ([…], time 14 day): 5.6 g/dL | gamma-GTP ([…], time 14 day): 2.2 IU/L | A/G ([…], time 28 day): 1.2 | ALP ([…], time 28 day): 1229.6 IU/L | ALT ([…], time 28 day): 42.6 IU/L | AST ([…], time 28 day): 64.6 IU/L | BUN ([…], time 28 day): 18.6 mg/dL | CRE ([…], time 28 day): 0.2 mg/dL | Ca ([…], time 28 day): 10.9 mg/dL | Cl ([…], time 28 day): 106 meq/L | DBIL ([…], time 28 day): 0 mg/dL | GLC ([…], time 28 day): 192.4 mg/dL | IP ([…], time 28 day): 6.5 mg/dL | K ([…], time 28 day): 4.1 meq/L | LDH ([…], time 28 day): 154.2 IU/L | Na ([…], time 28 day): 143 meq/L | PL ([…], time 28 day): 142 mg/dL | RALB ([…], time 28 day): 3.3 g/dL | TBIL ([…], time 28 day): 0.016 mg/dL | TC ([…], time 28 day): 72 mg/dL | TG ([…], time 28 day): 127.6 mg/dL | TP ([…], time 28 day): 6.1 g/dL | gamma-GTP ([…], time 28 day): 1.8 IU/L
